Measurements from patent publication US20040151761A1, “Methods and compositions utilizing astaxanthin” (priority 2003, published 2004).
Entries after “also recorded” stand apart in the source; their conditions may differ.

How the values were obtained:
[1] = test system: CD3, CD4, CD8, MHC II and CD21 lymphocyte subpopulations; assay: Leukocyte subsets in dogs by flow cytometry; format: in vivo, dog
Text: Leukocyte subset. Subpopulations of CD3 (total T), CD4 (Th), CD8 (Tc), MHC II (activated lymphocytes), and CD21 (mature B cells) were quantitated by flow cytometry on week 0, 6, 12 and 16 (Chew et al., 2000).

Hematology in cats = assay: Hematology in cats; set-up: species or system cat; details: in vivo
Description: (§1) Hematology. Hematology parameters (white blood cell, RBC and platelet counts, lymphocyte, monocyte and granulocyte differential counts, hematocrit, hemoglobin, and mean corpuscular volume, hemoglobin and hemoglobin concentration, and platelet volume) were measured using a hematology analyzer (Vet ABC-Hematology Analyzer, Heska, Fort Collins, Colo.).

[2] = Absorption of astaxanthin and distribution to blood leukocytes and HDL in dogs; format: in vivo, dog
[3] = test system: 8-Hydroxy-2′-deoxyguanosine (8-OHdG); assay: Oxidative damage to DNA in dogs (plasma 8-OHdG ELISA); format: in vivo, dog
Description: Oxidative damage to DNA. 8-Hydroxy-2′-deoxyguanosine (8-OHdG) was measured in plasma ELISA (BIOXYTECHTM™ 8-OHhdG-EIA Kit, OxisResearch, Portland, Oreg.; sensitivity=0.5 micrograms/L).

[4] = test system: Crandell feline kidney fibroblast cells (CrFK); assay: Natural killer cell cytotoxic activity in cats; format: in vivo, cat
Description: Natural killer cell cytotoxic activity. Cultures of Crandell feline kidney fibroblast cells (CrFK, ATCC CRL-9761; Crandell et al., 1973) were grown in Dulbecco's Modified Eagles Medium (Sigma, St. Louis, Mo.) with 10% fetal bovine serum, 100 U/mL penicillin, and […] streptomycin sulfate. At 70-90% confluence, cells were trypsinized, washed and adjusted to 2×10^5 cells/mL. One hundred microliters of cell suspension was pipeted into each well of 96-well flat bottom plates (Nunclon, Denmark) and incubated at 37° C. for 8 hours. Ficoll-separated PBMC were adjusted to 1×10^6/mL or 2×10^6/mL and 100 μL of the cell suspensions were added to the CrFK target cells to provide effector:target cell ratios of 5:1 and 10:1. After incubating for 8 hours, 20 μL MTT (5 g/L) were added and the mixture incubated for 4 hours. The supernatant was removed and the formazan resuspended in 100 μL isopropanol. Optical density was measured at 550 nm and the percent of specific cytotoxicity calculated as follows:
% Specific cytotoxicity=1−(ODeffector+target−ODeffector)/ODtarget×100.

[5] = compared with other antioxidants (Naguib, 2000; Miki, 1991); cited from earlier work
[6] = test system: total T, Th, Tc, MHC II and CD21 lymphocyte populations; assay: Leukocyte subsets in cats by flow cytometry; format: in vivo, cat
Text: Leukocyte subset. Blood collected at week 0, 8 and 12 was phenotyped for populations of CD3 (total T), CD4 (Th), CD8 (Tc), MHC II (activated lymphocytes), and CD21 (mature B cells) by flow cytometry (FACSCalibur, Becton Dickenson, San Jose, Calif.) as previously described (Chew et al., 2000).

Hematology in dogs = format: in vivo, dog; details: throughout the study
Description: as §1, with “Complete blood count” for “Hematology parameters”, “was performed on” for “were measured using”, “Colo.) using EDTA-treated blood.” for “Colo.).”

[7] = test system: peripheral blood mononuclear cell (PBMC); assay: Lymphoproliferation in cats (whole blood); format: in vivo, cat
Description: Lymphoproliferation. Mitogen-induced peripheral blood mononuclear cell (PBMC) proliferation was assessed by incubating whole blood in the presence of PHA (0.25 and 1.25 mg/L final concentration), con A (0.5 and 2.5 mg/L), and pokeweed mitogen (PWM; 0.025 and 0.125 mg/L) as previously described (Chew et al., 2000). Whole blood was used in order to simulate in vivo conditions. Results are reported as stimulation index (cpm of mitogen-stimulated÷cpm of unstimulated cultures).

[8] = Absorption of astaxanthin and distribution to blood leukocytes and HDL in cats; format: in vivo, cat
[9] = test system: total T, Th, Tc, MHC II and CD21 lymphocyte populations; assay: Leukocyte subsets in cats by flow cytometry; format: in vivo, cat; details: by weeks 8 and 12, generally dose-dependent
[10] = Body weight of dogs fed astaxanthin; format: in vivo, dog
Description: Female Beagle dogs (9 to 10 mo old; 8.2±0.2 kg body weight; Covance Research Products Inc., Kalamazoo, Mich.) were randomly assigned (n=14/treatment) to be fed 0, 10, 20, or 40 mg astaxanthin (109 g astaxanthin/kg oleoresin concentrate from Haematococcus pluvialis, astraZanthin™, La Haye Laboratories, Redmond, Wash.) daily for 16 weeks. Astaxanthin was incorporated into a commercial basal diet (The Iams Co., Lewisburg, Ohio.) and fed two times daily (200 g food/d). The diet composition was as follows (g/kg): 85.3 moisture, 275.8 protein, 60.7 ash, 115.0 fat, 9.9 Ca, 9.3 P, 21.3 crude fiber, and 18,914 kJ/kg gross energy; the n-6:n-3 fatty acid ratio was 7.9. Dogs were housed in 2×3 m pens (2 dogs/pen) in a temperature (20 to 22° C.) and light-(14 hour light) controlled facility. Body weight was recorded on week 0, 4, 8, and 16. Blood was collected on wk 0, 6 and 12 for assessing immune function. All dogs were vaccinated (Vanguard 5™, Smithkline Beacham, West Chester, Pa.) twice on week 12 and 14 and blood again taken on week 16 to assess post-vaccination immune responses.

CC1=C(/C=C/C(C)=C/C=C/C(C)=C/C=C/C=C(C)/C=C/C=C(C)/C=C/C2=C(C)C(=O)C(O)CC2(C)C)C(C)(C)CC(O)C1=O (stereo not drawn) [astaxanthin, 3,3′-dihydroxy-beta, beta-carotene-4,4′-dione]
population of B cells ([1]; 20 mg, post-vaccination week 16): showed the highest response; also recorded: highest B cell subpopulation
CD4 population ([1]; any time period): did not effect changes
CD8 population ([1]; any time period): did not effect changes
MHC class II population ([1]; any time period): did not effect changes
CD3 population ([1]; dogs fed 30 mg): transient decrease in the CD3 population
population of B cells ([1]; week 6 and 12, dose-dependent): generally increased the population of B cells
blood hematology parameters (Hematology in cats): generally did not influence
hematology values relative to normal range (Hematology in cats): within the normal range
lipoprotein association of circulating astaxanthin ([2]; dogs): associated with high-density lipoprotein (HDL)
absorption of dietary astaxanthin ([2]; domestic dogs): able to absorb dietary astaxanthin
uptake by blood and blood leukocytes (sub-cellular organelles) ([2]; domestic dogs fed astaxanthin): significant uptake by the blood and by all sub-cellular organelles of blood leukocytes; also recorded: significantly absorbed by blood leukocytes
plasma 8-OHdG concentrations ([3]; dogs fed 40 mg versus lower doses): no further decrease
plasma 8-OHdG production ([3]; supplemented dogs, as with C-reactive protein (post-vaccination)): inhibited the production of 8-OHdG
plasma 8-OHdG concentration ([3]; wk 12): no dietary influence
NK cell cytotoxic activity ([4]; week 8): no dietary treatment differences
NK cell cytotoxic activity ([4]; week 12, effector:target ratio 5:1, 5 and 10 mg): stimulated NK cell cytotoxic activity
NK cell cytotoxic activity ([4]; week 12, effector:target ratio 10:1, 1, 5 and 10 mg): stimulated NK cell cytotoxic activity
antioxidant activity against certain reactive oxygen species [5]: higher than that of beta-carotene, canthaxanthin, lutein, alpha-tocopherol, tunaxanthin, and zeaxanthin
CD8+ T cytotoxic (Tc) cells averaged ([6]; average over diets): 4.7±0.4
MHC class II population averaged ([6]; average over diets, in % (unit assumed)): 94.1±1.0
population of CD4+ T helper (Th) cells ([6]; by weeks 8 and 12, generally dose-dependent): increased the populations; also recorded: increase in the populations of total T and Th lymphocytes
MHC class II population ([6]; in vivo): did not influence
distribution of CD8+ T cytotoxic (Tc) cells ([6]; in vivo): did not influence
population of B cells ([6]; in vivo): decreased the population of B cells; also recorded: decrease in the B cell population
blood hematology (Hematology in dogs): generally showed no dietary effects
proliferative response to ConA ([7]; 1 mg, post-vaccination week 12): higher proliferative response
proliferative response to PHA ([7]; 1 mg, post-vaccination week 12): higher proliferative response
proliferative response to PWM ([7]; 1 mg, post-vaccination week 12): higher proliferative response
mitogen-induced PBMC proliferation ([7]; by week 8): did not influence
lipoprotein association of circulating astaxanthin ([8]; cats): associated with high-density lipoprotein (HDL)
absorption of dietary astaxanthin ([8]; domestic cats): able to absorb dietary astaxanthin
uptake by blood and blood leukocytes (sub-cellular organelles) ([8]; domestic cats fed astaxanthin): significant uptake by the blood and by all sub-cellular organelles of blood leukocytes; also recorded: significantly absorbed by blood leukocytes
population of CD5+ total T cells [9]: increased the populations; also recorded: increase in the populations of total T and Th lymphocytes
influence of diet on body weight ([10]; dogs fed 0, 10, 20 or 40 mg daily, throughout 16 wk study): did not significantly influence body weight
body weight averaged ([10]; wk 16, average over all diets): 8.57 ± 0.11 kg
